Test results: US20260327224A1, “SUBSTITUTED PYRIDOTRIAZOLE COMPOUND, AND PREPARATION METHOD THEREFOR AND USE THEREOF” (ORIGIANT PHARMACEUTICAL CO., LTD., priority 2023, published 2026)

Each molecule was assayed on HT-29 cells (colon cancer cells) (assay: In vitro assay for protection of HT-29 cells from necroptosis (TNFα/Smac mimetic/Z-VAD-FMK, CCK-8)). Settings: Homo sapiens, Protective Activity Against Necroptosis, TNFα/Smac mimetic/Z-VAD-FMK induced, 24 h.
Format: cell-based
From the text: Z′=1−3(SDmin+SDmax)/(AVEmax−AVEmin) • wherein: • Min is the positive control Data, and Max is the negative control DMSO Data. • SD is the standard deviation, and AVE is the average. In Vitro Assay for Protection of HT-29 Cells from Necroptosis:
1) Experimental Materials
DMEM medium was purchased from Gibco; penicillin-streptomycin was purchased from Hyclone; TNFα was purchased from Peprotech; Smac mimetic and Z-VAD-FMK were purchased from Selleck; and CCK-8 was purchased from Medchem Express.
HT-29 cells (colon cancer cells) were cultured in DMEM+10% FBS+penicillin/streptomycin. For the experiment, HT-29 cells in the logarithmic phase were collected and seeded into 96-well plates at a specific density (typically 8×10^3 cells/well for adherent cells). The cells were cultured overnight in an incubator at 37° C. with 5% CO2. On the following day, the test compound was diluted with culture medium to the corresponding concentrations and added into the 96-well plate, with 3 replicate wells for each sample. A solvent control group and a blank control group containing only culture medium were set simultaneously. The spiked cells were induced with a combination of TNFα/Smac mimetic/Z-VAD-FMK for 24 h. Subsequently, 10 μL of CCK8 solution was added to each well, and the cells were incubated in an incubator for 1-3 h. Absorbance was measured at […] using a microplate reader, and the cell necrosis protection rate of the drug was calculated using the following formula:
Cell necrosis protection rate=[(X−C0)/(C−C0)]×100% • where C, C0, and X represent the average absorbance values of the solvent control group, the blank control group, and the drug treatment group, respectively. Finally, a cell viability curve was fitted using Graphpad Prism 5.0 software, and the EC50 value of the test compound for inhibiting necroptosis was calculated.

| SMILES | EC50 [nM] |
| --- | --- |
| C[C@H](NC(=O)c1cn(C)c2ccc(-c3ccn4nc(NC(=O)CC(=O)O)nc4c3)cc12)c1ccc(F)cc1 [Compound 63] | 1000 to 10000 |
| Cn1cc(C(=O)N[C@@H]2C[C@H]2c2ccc(F)c(F)c2)c2cc(-c3ccn4nc(NC(=O)[C@H]5CCCO5)nc4c3)ccc21 [Compound 184] | 100 to 1000 |
| Cn1cc(C(=O)N[C@H]2CCCc3cc(F)ccc32)c2cc(-c3ccn4nc(NC(=O)[C@@H]5CCCO5)nc4c3)ccc21 [Compound 139] | 1 to 10 |
| C[C@H](NC(=O)c1cn(C)c2ccc(-c3ccn4nc(NC(=O)CN5CCCO5)nc4c3)cc12)c1ccc(F)cc1 [Compound 22] | 1 to 10 |
| C[C@H](NC(=O)c1cn(C)c2ccc(-c3ccn4nc(NC(=O)CN5CCOC[C@@H]5C)nc4c3)cc12)c1ccc(Cl)cc1 [Compound 82] | < 1 |
| C[C@H](NC(=O)c1cn(C)c2ccc(-c3ccn4nc(NC(=O)CN5CC6CC5CO6)nc4c3)cc12)c1ccc(Cl)cc1 (stereo partly drawn) [Compound 79] | < 1 |
| CO[C@@H](C)C(=O)Nc1nc2cc(-c3ccc4c(c3)c(C(=O)N[C@@H](CF)c3ccc(F)cc3)cn4C)ccn2n1 [Compound 98] | < 1 |
| CC1CN(CC(=O)Nc2nc3cc(-c4ccc5c(c4)c(C(=O)N[C@@H](C)c4ccc(F)cc4)cn5C)ccn3n2)CCO1 (stereo partly drawn) [Compound 45] | < 1 |
| CC(C(=O)Nc1nn(C)c2ccc(-c3ccn4nc(NC(=O)C5CC5)nc4c3)cc12)c1ccc(F)cc1 (stereo not drawn) [Compound 182] | 10 to 100 |
| CN(C)CC(=O)Nc1nc2cc(-c3ccc4c(c3)c(C(=O)N[C@@H](CF)c3ccc(F)cc3)cn4C)ccn2n1 [Compound 101] | < 1 |
| COCCOCCOCCOCC(=O)Nc1nc2cc(-c3ccc4c(c3)c(C(=O)N[C@@H](C)c3ccc(F)cc3)cn4C)ccn2n1 [Compound 26] | < 1 |
| C[C@H](NC(=O)c1cn(C)c2ccc(-c3ccn4nc(NC(=O)CN5CCC(O)(O)CC5)nc4c3)cc12)c1ccc(F)cc1 [Compound 5] | < 1 |
| C[C@H](NC(=O)c1cn(C)c2ccc(-c3ccn4nc(NC(=O)CN5CCSCC5)nc4c3)cc12)c1ccc(Cl)cc1 [Compound 87] | < 1 |
| Cn1cc(C(=O)Nc2nc3cc(-c4ccc5c(c4)c(C(=O)N[C@H]4CCc6ccc(F)cc64)cn5C)ccn3n2)cn1 [Compound 122] | 100 to 1000 |
| CC(C)NCC(=O)Nc1nc2cc(-c3ccc4c(c3)c(C(=O)N[C@@H](C)c3ccc(F)cc3)cn4C)ccn2n1 [Compound 67] | < 1 |
| C[C@H](NC(=O)c1cn(C)c2ccc(-c3ccn4nc(NC(=O)CN5CCOC[C@@H]5CO)nc4c3)cc12)c1ccc(F)cc1 [Compound 35] | < 1 |
| C[C@H](NC(=O)c1cn(C)c2ccc(-c3ccn4nc(NC(=O)CN(C)CCO)nc4c3)cc12)c1ccc(F)cc1 [Compound 74] | < 1 |
| C[C@H](NC(=O)c1cn(C)c2ccc(-c3ccn4nc(NC(=O)CNC5CCOC5)nc4c3)cc12)c1ccc(F)cc1 (stereo partly drawn) [Compound 77] | < 1 |
| C[C@H](NC(=O)c1cn(C)c2ccc(-c3ccn4nc(NC(=O)CN5CCC[C@H]5C(=O)O)nc4c3)cc12)c1ccc(F)cc1 [Compound 37] | 1 to 10 |

| SMILES | EC50 [nM] |
| --- | --- |
| C[C@H](NC(=O)c1cn(C)c2ccc(-c3ccn4nc(NC5CCOC5)nc4c3)cc12)c1ccc(F)cc1 (stereo partly drawn) [Compound 107] | < 1 |
| CCn1cc(C(=O)N[C@@H](C)c2ccc(F)cc2)c2cc(-c3ccn4nc(NC(=O)CN5CCOCC5)nc4c3)ccc21 [Compound 8] | < 1 |
| Cn1cc(C(=O)N[C@H]2CCCc3cc(F)ccc32)c2cc(-c3ccn4nc(NC(=O)CC#N)nc4c3)ccc21 [Compound 142] | 10 to 100 |
| C[C@H](NC(=O)c1cn(C)c2ccc(-c3ccn4nc(NC(=O)Cn5cncn5)nc4c3)cc12)c1ccc(F)cc1 [Compound 57] | 10 to 100 |
| C[C@H](NC(=O)c1cn(C)c2ccc(-c3ccn4nc(NC(=O)CN5CCOC[C@H]5C)nc4c3)cc12)c1ccc(F)cc1 [Compound 72] | < 1 |
| Cn1cc(C(=O)Nc2nc3cc(-c4ccc5c(c4)c(C(=O)N[C@@H](CF)c4ccc(F)cc4)cn5C)ccn3n2)cn1 [Compound 111] | 1 to 10 |
| CC(=O)Nc1nc2cc(-c3ccc4c(c3)c(C(=O)N[C@@H]3C[C@H]3c3ccc(F)c(F)c3)cn4C)ccn2n1 [Compound 125] | 1000 to 10000 |
| Cn1cc(C(=O)N2CC(F)(F)CC2c2ccc(F)cc2)c2cc(-c3ccn4nc(NC(=O)N5CCOCC5)nc4c3)ccc21 (stereo not drawn) [Compound 160] | < 1 |
| C[C@H](NC(=O)c1cn(C)c2ccc(-c3ccn4nc(NC(=O)C(N)=O)nc4c3)cc12)c1ccc(F)cc1 [Compound 11] | 1 to 10 |
| C[C@H](NC(=O)c1cn(C)c2ccc(-c3ccn4nc(NC(=O)CN5CC[C@@H](F)C5)nc4c3)cc12)c1ccc(F)cc1 [Compound 20] | < 1 |
| CN1CCC(C(=O)Nc2nc3cc(-c4ccc5c(c4)c(C(=O)N[C@H](c4ccc(F)cc4)C(F)F)cn5C)ccn3n2)C1 (stereo partly drawn) [Compound 168] | < 1 |
| Cn1nc(C(=O)N[C@@H](CF)c2ccc(F)cc2)c2cc(-c3ccn4nc(NC(=O)N5CCOCC5)nc4c3)ccc21 [Compound 189] | < 1 |
| Cn1cc(C(=O)N2CCC[C@H]2c2ccc(F)cc2)c2cc(-c3ccn4nc(NC(=O)C5CCOC5)nc4c3)ccc21 (stereo partly drawn) [Compound 186] | < 1 |
| Cn1cc(C(=O)Nc2nc3cc(-c4ccc5c(c4)c(C(=O)N[C@H]4CCCc6cc(F)ccc64)cn5C)ccn3n2)cn1 [Compound 141] | 1 to 10 |
| Cn1cc(C(=O)N2CC(F)(F)CC2c2ccc(F)cc2)c2cc(-c3ccn4nc(NC(=O)C5CC5)nc4c3)ccc21 (stereo not drawn) [Compound 158] | 1000 to 10000 |
| Cn1cc(C(=O)Nc2nc3cc(-c4ccc5c(c4)c(C(=O)N[C@H]4CCCc6ccc(F)cc64)cn5C)ccn3n2)cn1 [Compound 143] | 1 to 10 |
| Cn1cc(C(=O)N[C@H](c2ccc(F)cc2)C(F)F)c2cc(-c3ccn4nc(NC(=O)CC#N)nc4c3)ccc21 [Compound 164] | < 1 |
| CC(=O)Nc1nc2cc(-c3ccc4c(c3)c(C(=O)NC3CCc5cc(F)ccc53)cn4C)ccn2n1 (stereo in doubt) [Compound 127] | 1000 to 10000 |
| Cn1cc(C(=O)Nc2nc3cc(-c4ccc5c(c4)c(C(=O)N4CCC[C@H]4c4ccc(F)cc4)cn5C)ccn3n2)cn1 [Compound 207] | < 1 |

| SMILES | EC50 [nM] |
| --- | --- |
| Cn1cc(C(=O)N[C@@H](CF)c2ccc(F)cc2)c2cc(-c3ccn4nc(NC(=O)CN5CCCCC5)nc4c3)ccc21 [Compound 96] | < 1 |
| C[C@H](NC(=O)c1cn(C)c2ccc(-c3ccn4nc(NC(=O)CN5CCN(C)CC5)nc4c3)cc12)c1ccc(F)cc1 [Compound 51] | < 1 |
| C[C@H](NC(=O)c1cn(C)c2ccc(-c3ccn4nc(NC(=O)CN5CCOC(C)(C)C5)nc4c3)cc12)c1ccc(F)cc1 [Compound 18] | < 1 |
| C[C@H](NC(=O)c1cn(C)c2ccc(-c3ccn4nc(NC(=O)Cn5ccnc5)nc4c3)cc12)c1ccc(F)cc1 [Compound 48] | 10 to 100 |
| Cn1nc(C(=O)N[C@@H](CF)c2ccc(F)cc2)c2cc(-c3ccn4nc(NC(=O)C5CC5)nc4c3)ccc21 [Compound 190] | < 1 |
| Cn1cc(C(=O)Nc2nc3cc(-c4ccc5c(c4)c(C(=O)N4CCOC[C@@H]4c4ccc(F)cc4)cn5C)ccn3n2)cn1 [Compound 149] | < 1 |
| C[C@H](NC(=O)c1cn(C)c2ccc(-c3ccn4nc(NC(=O)CN5CCS(=O)(=O)CC5)nc4c3)cc12)c1ccc(F)cc1 [Compound 28] | 1 to 10 |
| Cn1cc(C(=O)N[C@@H](CF)c2ccc(F)cc2)c2cc(-c3ccn4nc(NC(=O)CCl)nc4c3)ccc21 [Compound 94] | < 1 |
| C[C@@H](c1ccc(F)cc1)N(C)C(=O)c1cn(C)c2ccc(-c3ccn4nc(NC(=O)CN(C)C)nc4c3)cc12 [Compound 174] | < 1 |
| Cn1cc(C(=O)N2CCOC[C@@H]2c2ccc(F)cc2)c2cc(-c3ccn4nc(NC(=O)C5CC5)nc4c3)ccc21 [Compound 151] | < 1 |
| Cn1cc(C(=O)Nc2nc3cc(-c4ccc5c(c4)c(C4=NC(c6ccc(F)cc6)CO4)cn5C)ccn3n2)cn1 (stereo not drawn) [Compound 213] | 10 to 100 |
| COCCOCCOCC(=O)Nc1nc2cc(-c3ccc4c(c3)c(C(=O)N[C@@H](C)c3ccc(F)cc3)cn4C)ccn2n1 [Compound 25] | < 1 |
| Cn1cc(C(=O)N[C@@H](CF)c2ccc(F)cc2)c2cc(-c3ccn4nc(NC(=O)N5CCOCC5)nc4c3)ccc21 [Compound 103] | < 1 |
| CC(C(=O)Nc1nn(C)c2ccc(-c3ccn4nc(NC(=O)c5cnn(C)c5)nc4c3)cc12)c1ccc(F)cc1 (stereo not drawn) [Compound 181] | 1000 to 10000 |
| Cn1cc(C2=NC(c3ccc(F)cc3)CO2)c2cc(-c3ccn4nc(NC(=O)C5CC5F)nc4c3)ccc21 (stereo not drawn) [Compound 211] | 10 to 100 |
| C[C@H](NC(=O)c1cn(C)c2ccc(-c3ccn4nc(N5CCOCC5)nc4c3)cc12)c1ccc(F)cc1 [Compound 219] | 1 to 10 |
| CCNCC(=O)Nc1nc2cc(-c3ccc4c(c3)c(C(=O)N[C@@H](C)c3ccc(F)cc3)cn4C)ccn2n1 [Compound 76] | < 1 |
| Cn1cc(C(=O)N[C@@H](CF)c2ccc(F)cc2)c2cc(-c3ccn4nc(NC(=O)C5CC5(F)F)nc4c3)ccc21 (stereo partly drawn) [Compound 110] | < 1 |
| C[C@H](NC(=O)c1cn(C)c2ccc(-c3ccn4nc(NC(=O)c5cnn(C)c5)nc4c3)cc12)c1cccc(F)c1 [Compound 120] | < 1 |
